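Grown in 96-well plates, cells were treated for 48 hours with each compound at five concentrations. Insufficient inhibition: endpoint recorded as highest concentration tested. GI50 marks 50% less growth.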 Activity calls are given as the source filed them. Cut-off read from the data, not from the text of the source: active = GI50 up to about 1.1 µM and inactive = higher.
What was measured:
Assay in all cases: DTP human tumour cell line panel, 48 h
[1] = tested on: LOX IMVI
[2] = tested on: SN12C
[3] = tested on: A549
[4] = tested on: SNB-75
[5] = tested on: HL-60
[6] = tested on: OVCAR-3
[7] = tested on: K562
[8] = tested on: MDA-MB-435
[9] = tested on: M14
[10] = tested on: A498
[11] = tested on: IGROV-1
[12] = tested on: NCI-H460
[13] = tested on: OVCAR-5
[14] = tested on: HOP-92
[15] = tested on: OVCAR-4
[16] = tested on: U-251
[17] = tested on: HCT-116
[18] = tested on: OVCAR-8
[19] = tested on: SF-295
[20] = tested on: SK-OV-3

Row | SMILES | GI50 [1] | GI50 [2] | GI50 [3] | GI50 [4] | GI50 [5] | GI50 [6] | GI50 [7] | GI50 [8] | GI50 [9] | GI50 [10] | GI50 [11] | GI50 [12] | GI50 [13] | GI50 [14] | GI50 [15] | GI50 [16] | GI50 [17] | GI50 [18] | GI50 [19] | GI50 [20]
1 | N[C@@H]1CCN(c2c(F)cc3c(=O)c(C(=O)O)cn4c3c2Oc2cc3c(ccc5ccccc53)cc2-4)C1 | 2.34 µM (inactive) | 2.08 µM (inactive) | 3.29 µM (inactive) | 2.89 µM (inactive) | 7.14 µM (inactive) | 5.73 µM (inactive) | 2.54 µM (inactive) | 3.24 µM (inactive) | 8.79 µM (inactive) | 4.83 µM (inactive) | 1.82 µM (inactive) | 0.735 µM (active) | 13.9 µM (inactive) | 2.72 µM (inactive) | 4.36 µM (inactive) | 0.906 µM (active) | 1.64 µM (inactive) | 1.7 µM (inactive) | 3.68 µM (inactive) | 
2 | CC(=O)c1cc2c(Br)cccc2oc1=O | > 100 µM (inactive) | > 100 µM (inactive) | > 100 µM (inactive) | > 100 µM (inactive) | > 100 µM (inactive) | > 100 µM (inactive) | 99.1 µM (inactive) | 54.5 µM (inactive) | > 100 µM (inactive) | > 100 µM (inactive) | > 100 µM (inactive) | > 100 µM (inactive) | > 100 µM (inactive) | > 100 µM (inactive) | > 100 µM (inactive) | 63.4 µM (inactive) | 66.7 µM (inactive) | > 100 µM (inactive) | > 100 µM (inactive) | 
3 | C[C@@H]1CC[C@@]2(C)[C@H](C)/C(=C\COC(=O)/C=C/c3ccc(O)c(O)c3)CC[C@@]12C [NAVICULYL CAFFEATE] | 6.01 µM (inactive) | 4.55 µM (inactive) | 7.62 µM (inactive) | 11.9 µM (inactive) | 5.26 µM (inactive) | 8.63 µM (inactive) | 4.99 µM (inactive) | 3.33 µM (inactive) | 8.18 µM (inactive) | 12.9 µM (inactive) | 7.31 µM (inactive) | 3.57 µM (inactive) | 18 µM (inactive) | 14.1 µM (inactive) | 4.65 µM (inactive) | 5.35 µM (inactive) | 2.78 µM (inactive) | 9.42 µM (inactive) | 8.87 µM (inactive) | 12.4 µM (inactive)
4 | Nc1nc(Cl)nc(NCc2ccccc2)n1 | > 100 µM (inactive) | > 100 µM (inactive) | > 100 µM (inactive) | > 100 µM (inactive) | 48 µM (inactive) | > 100 µM (inactive) | > 100 µM (inactive) | > 100 µM (inactive) | > 100 µM (inactive) | > 100 µM (inactive) | > 100 µM (inactive) | > 100 µM (inactive) | > 100 µM (inactive) | > 100 µM (inactive) | > 100 µM (inactive) | > 100 µM (inactive) | > 100 µM (inactive) | > 100 µM (inactive) | > 100 µM (inactive) | > 100 µM (inactive)
5 | C=CC1ON(Cc2ccccc2)CCc2cc(OC)c(OC)cc21 (configuration not stated) | 43.3 µM (inactive) | 77.4 µM (inactive) | 44.2 µM (inactive) | 72.4 µM (inactive) | 26.1 µM (inactive) | 35.4 µM (inactive) | 42 µM (inactive) | 24.5 µM (inactive) | 49.7 µM (inactive) | 15.2 µM (inactive) | 78 µM (inactive) | 57 µM (inactive) | > 100 µM (inactive) | 46.5 µM (inactive) |  | 66.5 µM (inactive) | 45.2 µM (inactive) | > 100 µM (inactive) | 31.7 µM (inactive) | 56.5 µM (inactive)
6 | COc1ccccc1C1(c2c(OC(C)C)c(=O)c2=O)SCCCS1 | > 100 µM (inactive) | > 100 µM (inactive) | > 100 µM (inactive) | 90.4 µM (inactive) | > 100 µM (inactive) | > 100 µM (inactive) |  | > 100 µM (inactive) | > 100 µM (inactive) | > 100 µM (inactive) | > 100 µM (inactive) | > 100 µM (inactive) | > 100 µM (inactive) | > 100 µM (inactive) | > 100 µM (inactive) | > 100 µM (inactive) | > 100 µM (inactive) | > 100 µM (inactive) | > 100 µM (inactive) | > 100 µM (inactive)
7 | CC(=O)N1c2ccccc2[C@H]2CCc3c([nH]c4ccccc34)[C@H]21 | 11.6 µM (inactive) | 13.7 µM (inactive) | 17.2 µM (inactive) | 18.4 µM (inactive) | 12.4 µM (inactive) | 15.4 µM (inactive) | 8.57 µM (inactive) | 16.7 µM (inactive) | 14.3 µM (inactive) | 17.5 µM (inactive) | 4.33 µM (inactive) | 8.39 µM (inactive) | 26.9 µM (inactive) | 14.4 µM (inactive) |  | 12.7 µM (inactive) | 3.07 µM (inactive) | 25.3 µM (inactive) | 13.9 µM (inactive) | 28.3 µM (inactive)
8 | CCc1cc(O)c(Cl)c(C)c1Cl | 15.9 µM (inactive) | 15.6 µM (inactive) | 23.1 µM (inactive) | 18.9 µM (inactive) | 33.7 µM (inactive) | 18.2 µM (inactive) |  | 16.4 µM (inactive) | 18.6 µM (inactive) | 13 µM (inactive) | 18.6 µM (inactive) | 15.6 µM (inactive) | 20.6 µM (inactive) | 12.8 µM (inactive) | 15.1 µM (inactive) | 18 µM (inactive) | 16.1 µM (inactive) | 18.2 µM (inactive) | 20 µM (inactive) | 18.3 µM (inactive)
9 | N/C(=N\c1ccc(Cl)c(Cl)c1)c1ccccc1N | 22.1 µM (inactive) |  | 25.3 µM (inactive) | 31.4 µM (inactive) | 22.2 µM (inactive) | 39.5 µM (inactive) | 18.4 µM (inactive) | 18.5 µM (inactive) | 15.5 µM (inactive) | 22.3 µM (inactive) | 13.3 µM (inactive) | 34.8 µM (inactive) | 36 µM (inactive) | 2.88 µM (inactive) | 50.8 µM (inactive) | 30.1 µM (inactive) | 17.2 µM (inactive) | 26.4 µM (inactive) | 40.6 µM (inactive) | 85.7 µM (inactive)
10 | CC1=CCC(=O)[C@]2(C)C(CC(=O)O)[C@]3(C)C4=C(C)C(c5ccoc5)C[C@@H]4O[C@@H]3[C@H](O)[C@@H]12 (some centres not stated) | > 100 µM (inactive) | > 100 µM (inactive) | > 100 µM (inactive) | > 100 µM (inactive) | > 100 µM (inactive) | > 100 µM (inactive) |  | > 100 µM (inactive) | > 100 µM (inactive) | > 100 µM (inactive) | > 100 µM (inactive) | > 100 µM (inactive) | > 100 µM (inactive) | > 100 µM (inactive) | > 100 µM (inactive) | > 100 µM (inactive) | > 100 µM (inactive) | > 100 µM (inactive) | > 100 µM (inactive) | > 100 µM (inactive)
11 | CC12CCC(C1)C(C)(C)C2OC(=O)c1ccccc1C(=O)O (configuration not stated) | > 100 µM (inactive) | > 100 µM (inactive) | > 100 µM (inactive) | > 100 µM (inactive) | > 100 µM (inactive) |  | > 100 µM (inactive) | > 100 µM (inactive) | > 100 µM (inactive) | > 100 µM (inactive) | > 100 µM (inactive) | > 100 µM (inactive) | > 100 µM (inactive) | > 100 µM (inactive) | > 100 µM (inactive) | > 100 µM (inactive) | > 100 µM (inactive) | > 100 µM (inactive) | > 100 µM (inactive) | > 100 µM (inactive)
12 | COc1cc(/C=C2\N=C(c3ccccc3)N(c3cc4cc(Sc5ccccc5)ccc4[nH]3)C2=O)cc(OC)c1OC | 11.3 µM (inactive) | 15.2 µM (inactive) | 19.5 µM (inactive) | 12.7 µM (inactive) | 14.6 µM (inactive) | 17.8 µM (inactive) | 4.25 µM (inactive) | 3.84 µM (inactive) | 11.4 µM (inactive) | 13.8 µM (inactive) | 15.5 µM (inactive) | 14.3 µM (inactive) | 25.9 µM (inactive) | 6.92 µM (inactive) | 26 µM (inactive) |  | 11.7 µM (inactive) | 12.6 µM (inactive) | 20.7 µM (inactive) | 21.6 µM (inactive)
13 | C=C(C)[C@@]1(O[Si](C)(C)C)CCCC[C@@H]1CC(Sc1ccccc1)Sc1ccccc1 | 17.9 µM (inactive) |  | 10.1 µM (inactive) | 12.1 µM (inactive) | 16.7 µM (inactive) | 14.1 µM (inactive) | 12.7 µM (inactive) | 15.6 µM (inactive) | 14.9 µM (inactive) | 19.9 µM (inactive) | 15.6 µM (inactive) | 13.2 µM (inactive) | 16.2 µM (inactive) | 12.7 µM (inactive) | 12.6 µM (inactive) | 16 µM (inactive) |  | 16.1 µM (inactive) | 12.4 µM (inactive) | 20 µM (inactive)
14 | COC(=O)[C@H](CNC(=O)/C=C/c1ccc(OC(C)=O)c(OC(C)=O)c1)NC(=O)/C=C/c1ccc(OC(C)=O)c(OC(C)=O)c1 | > 100 µM (inactive) | > 100 µM (inactive) | > 100 µM (inactive) | > 100 µM (inactive) | > 100 µM (inactive) | > 100 µM (inactive) | > 100 µM (inactive) | > 100 µM (inactive) | > 100 µM (inactive) | > 100 µM (inactive) | > 100 µM (inactive) | > 100 µM (inactive) | > 100 µM (inactive) | > 100 µM (inactive) | > 100 µM (inactive) | > 100 µM (inactive) | > 100 µM (inactive) | > 100 µM (inactive) |  | > 100 µM (inactive)

— ChEMBL document CHEMBL1201862, “PubChem BioAssay data set” (2004)
